Data reported in patent US8076356B2, “Triazolopyridinylsulfanyl derivatives as P38 map kinase inhibitors” (Pfizer Inc., priority 2004, dated 2011).

tested on: TNFα release from human peripheral blood mononuclear cells; test: TNFα screen; format: cell-based; settings: LPS-stimulated human peripheral blood mononuclear cells, 18 hours incubation, TNFα in supernatant by ELISA; read-out: TNF IC50
Protocol: Venous blood is collected from healthy volunteers and the mononuclear cells purified by centrifugation through Histopaque (Ficoll) cushions. TNFα production from these cells is stimulated by addition of lipopolysaccharide. After 18 hours incubation in the presence of LPS, the cell supernatant is removed and the concentration of TNFα in the supernatant determined by ELISA.

| SMILES | IC50 [nM] |
| --- | --- |
| CNC(=O)c1ccc(-n2nc(C(C)(C)C)cc2NC(=O)NCc2ccccc2Sc2ccc3nnc(C(C)C)n3c2)cc1 [Example 118] | 15.7 |
| Cc1cc(OCc2ccccc2)cc(-n2nc(C(C)(C)C)cc2NC(=O)NCc2ccccc2Sc2ccc3nnc(C(C)C)n3c2)c1 [Example 124] | 4.6 |
| CSC(C)(C)c1cc(NC(=O)NCc2ccccc2Sc2ccc3nnc(C(C)C)n3c2)n(-c2ccc(OCCO)cc2)n1 [Example 125] | 80 |
| CC(C)(C)c1cc(NC(=O)NCc2ccccc2Sc2ccc3nnc(-c4cccc(O)c4Cl)n3c2)n(-c2ccc(F)c(F)c2)n1 [Example 128] | 3.7 |
| CCc1ccccc1-c1nnc2ccc(Sc3ccccc3CNC(=O)Nc3cc(C(C)(C)SC)nn3-c3ccc(O)cc3)cn12 [Example 132] | 4.5 |
| CC(C)c1ccccc1-c1nnc2ccc(Sc3ccccc3CNC(=O)Nc3cc(C(C)(C)C)nn3-c3ccc(OCCO)cc3)cn12 [Example 139] | 3.2 |
| CSC(C)(C)c1cc(NC(=O)NCc2ccccc2Sc2ccc3nnc(-c4cccc(Cl)c4O)n3c2)n(-c2cccc(C)c2)n1 [Example 152] | 4.9 |
| CSC(C)(C)c1cc(NC(=O)NCc2ccccc2Sc2ccc3nnc(-c4cccc(Cl)c4O)n3c2)n(-c2ccc(C)cc2)n1 [Example 153] | 4.8 |
| CC(C)c1nnc2ccc(Sc3ccccc3CNC(=O)Nc3cc(C(C)(C)C)nn3-c3ccccn3)cn12 [Example 180] | 21 |

Continued, values first:

| IC50 [nM] | SMILES |
| --- | --- |
| 3.2 | Cc1ccc(-n2nc(C(C)(C)C)cc2NC(=O)NCc2ccccc2Sc2ccc3nnc(-c4ccccc4OCc4ccccc4)n3c2)cc1 [Example 116] |
| 2.7 | CC(C)c1nnc2ccc(Sc3ccccc3CNC(=O)Nc3cc(C(C)(C)C)nn3-c3cccc4cnccc34)cn12 [Example 181] |
| 2.2 | CSC(C)(C)c1cc(NC(=O)NCc2ccccc2Sc2ccc3nnc(-c4ccccc4C(C)C)n3c2)n(-c2ccc(O)cc2)n1 [Example 142] |
| 1.8 | COc1ccccc1-c1nnc2ccc(Sc3ccccc3CNC(=O)Nc3cc(C(C)(C)SC)nn3-c3ccc(O)cc3)cn12 [Example 140] |
| 1.5 | CC(C)(C)c1cc(NC(=O)NCc2ccccc2Sc2ccc3nnc(-c4ccccc4SCCO)n3c2)n(-c2cccc(O)c2)n1 [Example 179] |
| 1.4 | CC(C)(C)c1cc(NC(=O)NCc2ccccc2Sc2ccc3nnc(-c4ccccc4F)n3c2)n(-c2ccc(OCCO)cc2)n1 [Example 141] |
| 1.4 | CSC(C)(C)c1cc(NC(=O)NCc2ccccc2Sc2ccc3nnc(-c4ccc(C)cc4O)n3c2)n(-c2cccc(C)c2)n1 [Example 151] |
| 1.2 | COc1ccccc1-c1nnc2ccc(Sc3ccccc3CNC(=O)Nc3cc(C(C)(C)C)nn3-c3ccc(O)cc3)cn12 [Example 143] |
| 1.2 | CC(C)c1ccccc1-c1nnc2ccc(Sc3ccccc3CNC(=O)Nc3cc(C(C)(C)C)nn3-c3ccc(O)cc3)cn12 [Example 144] |
| 1 | CSC(C)(C)c1cc(NC(=O)NCc2ccccc2Sc2ccc3nnc(C(C)C)n3c2)n(-c2cc(C)cc(C)c2)n1 [Example 136] |
| 0.9 | COc1ccccc1-c1nnc2ccc(Sc3ccccc3CNC(=O)Nc3cc(C(C)(C)C)nn3-c3cccc(O)c3)cn12 [Example 145] |
| 0.7 | CCC(C)(C)c1cc(NC(=O)NCc2ccccc2Sc2ccc3nnc(-c4ccccc4O)n3c2)n(-c2cccnc2)n1 [Example 182] |

same assay, conditions: PBMC; LPS-stimulated human peripheral blood mononuclear cells, 18 hours incubation, TNFα in supernatant by ELISA; read-out: TNF IC50

| SMILES | IC50 [nM] |
| --- | --- |
| CSC(C)(C)c1cc(NC(=O)NCc2ccccc2Sc2ccc3nnc(-c4ccccc4F)n3c2)n(-c2ccc(O)cc2)n1 [Example 109, N-(2-{[3-(2-Fluorophenyl)[1,2,4]triazolo[4,3-a]pyridin-6-yl]thio}benzyl)-N′-{1-(4-hydroxyphenyl)-3-[1-methyl-1-(methylthio)ethyl]-1H-pyrazol-5-yl}urea] | 1.2 |
| CSc1ccc(-c2nnc3ccc(Sc4ccccc4CNC(=O)Nc4cc(C(C)(C)C)nn4-c4cccc(O)c4)cn23)cc1 [Example 114, N-[3-tert-Butyl-1-(3-hydroxyphenyl)-1H-pyrazol-5-yl]-N′-[2-({3-[4-(methylthio)phenyl][1,2,4]triazolo[4,3-a]pyridin-6-yl}thio)benzyl]urea] | 3.6 |
